In US6979686B1, “Substituted pyrazoles as p38 kinase inhibitors” (Pharmacia Corporation, priority 2001, dated 2005):
Like-named read-outs stand apart in the source and are kept apart here. Values belong to the compound of their own block, whether it stands above or below them.

Tests used:
human p38 kinase alpha = target: T1, human p38 kinase alpha (Homo sapiens, UniProt Q16539); assay: p38 kinase in vitro assay, phosphorylation of biotinylated PHAS-I with 32P-ATP; assay type: biochemical; conditions: for P38 alpha kinase % inhib @ conc. (uM) / inhibition at 1 µM: @ 1.0 uM; for inhibition at 1 µM: read-out: P38 alpha kinase % inhib @ conc.
T1 construct: GST (N, cleaved yes); made in house; host or cells: E. coli DH10B
T1 sequence (Q16539 whole entry): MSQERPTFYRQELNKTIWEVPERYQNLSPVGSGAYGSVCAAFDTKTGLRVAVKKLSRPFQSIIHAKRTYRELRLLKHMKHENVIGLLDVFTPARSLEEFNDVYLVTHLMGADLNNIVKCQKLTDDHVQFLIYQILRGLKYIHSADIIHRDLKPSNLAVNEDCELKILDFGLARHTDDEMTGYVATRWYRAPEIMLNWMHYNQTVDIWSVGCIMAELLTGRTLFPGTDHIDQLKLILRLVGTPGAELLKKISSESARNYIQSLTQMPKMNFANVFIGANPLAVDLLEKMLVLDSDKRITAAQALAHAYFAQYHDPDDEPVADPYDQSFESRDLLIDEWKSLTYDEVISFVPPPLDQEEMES

[1] = test system: TNF-α, U937 human histiocytic lymphoma cell line; assay: LPS stimulation of TNF production by U937 cells; assay type: cell-based; conditions: for inhibition at 1 µM: U-937, @ 1.0 uM; for inhibition at 1 µM / inhibition at 10 µM: read-out: U937 Cell % inhib @ conc.; for inhibition at 10 µM: U-937, @ 10.0 uM
Description: Maintenance and Differentiation of the U937 Human Histiocytic Lymphoma Cell Line:
Fifty million cells in 100 ml media were induced to terminal monocytic differentiation by 24 hour incubation with 20 ng/ml phorbol 12-myristate 13-acetate (Sigma). The cells were washed by centrifugation (200×g for 5 min) and resuspended in 100 ml fresh medium. After 24-48 hours, the cells were harvested, centrifuged, and resuspended in culture medium at 2 million cells/ml.
LPS Stimulation of TNF Production by U937 Cells:
Compounds were prepared as 10 mM stock solutions in DMSO and diluted in culture medium to yield a final DMSO concentration of 0.1% in the cell assay. LPS (E coli, 100 ng/ml final concentration) was then added at a volume of 0.02 ml. After 4 hour incubation at 37° C., the amount of TNF-α released in the culture medium was quantitated by ELISA. Inhibitory potency is expressed as IC50 (μM).
In vitro whole cell assay for measuring the ability of the compounds to inhibit TNF production in human U937 cells stimulated with LPS are shown in the column identified as: • “U937 Cell IC50, uM or % inhib @ conc., (uM)”

[2] = in vitro P38-alpha kinase inhibition, read-out: P38 alpha kinase IC50
[3] = @ 1.0 uM, TNF production in human U937 cells stimulated with LPS
[4] = in vitro P38-alpha kinase, read-out: P38 alpha kinase IC50
[5] = Homo sapiens, TNF production, LPS-stimulated U937 cells
[6] = @ 10.0 uM, TNF production, LPS-stimulated U937 cells
[7] = Homo sapiens, TNF production in human U937 cells stimulated with LPS
[8] = @ 1.0 uM, TNF production, U937 cells stimulated with LPS
[9] = Homo sapiens, TNF production, U937 cells stimulated with LPS
[10] = Homo sapiens, U-937, TNF production, human U937 cells stimulated with LPS, read-out: U937 Cell IC50
[11] = @ 10.0 uM, TNF production, U937 cells stimulated with LPS
[12] = Homo sapiens, U-937, TNF production in human U937 cells stimulated with LPS, read-out: U937 Cell IC50
[13] = activated human p38 kinase alpha, PHAS-I substrate, 50 μM unlabeled ATP, read-out: p38 kinase IC50
[14] = Table 5, LPS-stimulated U937 cells, TNF-α, read-out: U937 Cell Assay IC50

IC50 (human p38 kinase alpha; [2]): 900 nM
IC50 ([1]; TNF production in human U937 cells stimulated with LPS, read-out: U937 Cell IC50): > 1000 nM
Compound: CN(C(=O)NC(Cc1ccccc1)c1[nH]nc(-c2ccc(F)cc2)c1-c1ccncc1)c1ccccc1 (centres unmarked) [Example B-0776]

IC50 (human p38 kinase alpha; [2]): 440 nM
Compound: CC(NC(=O)c1cccs1)c1[nH]nc(-c2ccc(F)cc2)c1-c1ccncc1 (centres unmarked) [Example B-0705]
U937 Cell % inhib @ conc. (uM) [1, 3]: 21.0% @

IC50 (human p38 kinase alpha; [4]): 850 nM
Compound: O=S(=O)(c1ccc(Cl)cc1)N1CCC(c2[nH]nc(-c3ccc(F)cc3)c2-c2ccncc2)CC1 [Example B-1471]
inhibition at 1 µM [1, 5]: 25%

P38 alpha kinase % inhib @ conc. (human p38 kinase alpha; @ 100.0 uM): 68% @
Compound: CCN(Cc1ccncc1)C(=O)Cn1nc(-c2ccc(F)cc2)c(-c2ccncc2)c1C [Example B-2381]
U937 Cell % inhib @ conc. [1, 6]: 2.0% @

IC50 (human p38 kinase alpha; [2]): 2840 nM
Compound: CC(NC(=O)c1cccc(Br)c1)c1[nH]nc(-c2ccc(F)cc2)c1-c1ccncc1 (centres unmarked) [Example B-0539]
inhibition at 1 µM [1, 7]: 21%

P38 alpha kinase % inhib @ conc. (uM) (human p38 kinase alpha): 68.0% @
Compound: O=C(NCCc1[nH]nc(-c2ccc(F)cc2)c1-c1ccncc1)Nc1cccc(Cl)c1Cl [Example B-0980]
U937 Cell % inhib @ conc. (uM) [1, 8]: 31.0% @

IC50 (human p38 kinase alpha; [2]): 430 nM
Compound: CCCCOc1ccc(S(=O)(=O)NCCc2[nH]nc(-c3ccc(F)cc3)c2-c2ccncc2)cc1 [Example B-1084]
inhibition at 1 µM [1, 9]: 29%

P38 alpha kinase % inhib @ conc. (uM) (human p38 kinase alpha): 53.0% @
Compound: COc1ccccc1C(=O)NCCc1[nH]nc(-c2ccc(F)cc2)c1-c1ccncc1 [Example B-0995]
U937 Cell % inhib @ conc. (uM) [1, 8]: 14.0% @

inhibition at 1 µM (human p38 kinase alpha): 96%
IC50 [1, 10]: 3270 nM
Compound: O=C(NCc1[nH]nc(-c2ccc(F)cc2)c1-c1ccncc1)c1ccc(F)c(F)c1F [Example B-0026]

P38 alpha kinase IC50, uM or % inhib @ conc. (uM): % inhib (human p38 kinase alpha; @ 10.0 uM): 83.0% @
U937 Cell IC50, uM or % inhib @ conc. (uM): % inhib [1, 11]: 36.0% @
Compound: CCOC(=O)COc1cccc(NC(=O)Cn2nc(-c3ccc(F)cc3)c(-c3ccncc3)c2C)c1 [Example B-2458]

P38 alpha kinase % inhib @ conc. (uM) (human p38 kinase alpha): 61.0% @
Compound: COc1ccc(CC(=O)NCCc2[nH]nc(-c3ccc(F)cc3)c2-c2ccncc2)cc1OC [Example B-0999]
U937 Cell % inhib @ conc. (uM) [1, 8]: 24.0% @

IC50 (human p38 kinase alpha; [2]): 440 nM
IC50 [1, 12]: 870 nM
Compound: CC(=O)OC(C)(C)C(=O)NC(C)c1[nH]nc(-c2ccc(F)cc2)c1-c1ccncc1 (centres unmarked) [Example B-0535]

IC50 (human p38 kinase alpha; [13]): < 100 nM
IC50 [1, 14]: 74 nM
Compound: Cc1[nH]nc(-c2cccc(Cl)c2)c1-c1ccncc1 [Example A-51]

IC50 (human p38 kinase alpha; [2]): 2570 nM
Compound: Cc1ccc(S(=O)(=O)NC(Cc2ccccc2)C(=O)NC(C)c2[nH]nc(-c3ccc(F)cc3)c2-c2ccncc2)cc1 (centres unmarked) [Example B-0560]
inhibition at 1 µM [1, 7]: 31%

IC50 (human p38 kinase alpha; [2]): 1240 nM
Compound: CC(C)=CC(=O)NC(C)c1[nH]nc(-c2ccc(F)cc2)c1-c1ccncc1 (centres unmarked) [Example B-0547]
inhibition at 1 µM [1, 7]: 21%

IC50 (human p38 kinase alpha; [2]): 1360 nM
IC50 [1, 10]: > 1000 nM
Compound: CNC(=O)CCC(NC(=O)Nc1ccccc1F)c1[nH]nc(-c2ccc(F)cc2)c1-c1ccncc1 (centres unmarked) [Example B-0881]

IC50 (human p38 kinase alpha; [4]): 1240 nM
Compound: Cc1ccc(S(=O)(=O)N2CCC(c3[nH]nc(-c4ccc(F)cc4)c3-c3ccncc3)CC2)cc1 [Example B-1473]
inhibition at 1 µM [1, 5]: 14%

inhibition at 1 µM (human p38 kinase alpha): 94%
Compound: O=C(NCc1[nH]nc(-c2ccc(F)cc2)c1-c1ccncc1)c1ccc([N+](=O)[O-])o1 [Example B-0031]
inhibition at 10 µM [1, 9]: 100%

IC50 (human p38 kinase alpha; [2]): 230 nM
IC50 [1, 12]: 590 nM
Compound: CC(NS(=O)(=O)C=Cc1ccccc1)c1[nH]nc(-c2ccc(F)cc2)c1-c1ccncc1 (centres unmarked) [Example B-0565]

P38 alpha kinase % inhib @ conc. (uM) (human p38 kinase alpha): 79.0% @
Compound: CCOC(=O)C(NC(=O)NCCc1[nH]nc(-c2ccc(F)cc2)c1-c1ccncc1)C(C)C (centres unmarked) [Example B-0976]
U937 Cell % inhib @ conc. (uM) [1, 8]: 36.0% @

IC50 (human p38 kinase alpha; [2]): 1060 nM
IC50 [1, 10]: > 1000 nM
Compound: CCNC(=O)NC(CCC(=O)NC)c1[nH]nc(-c2ccc(F)cc2)c1-c1ccncc1 (centres unmarked) [Example B-0883]

IC50 (human p38 kinase alpha; [4]): 1610 nM
Compound: O=S(=O)(c1cccc(C(F)(F)F)c1)N1CCC(c2[nH]nc(-c3ccc(F)cc3)c2-c2ccncc2)CC1 [Example B-1468]
inhibition at 1 µM [1, 5]: 10%

inhibition at 1 µM (human p38 kinase alpha): 94%
IC50 [1, 10]: 1010 nM
Compound: O=C(NCc1[nH]nc(-c2ccc(F)cc2)c1-c1ccncc1)c1ccc(F)c(F)c1 [Example B-0045]

IC50 (human p38 kinase alpha; [4]): 640 nM
Compound: CC(=O)NCCNC(=O)NCCCc1[nH]nc(-c2ccc(F)cc2)c1-c1ccncc1 [Example B-1305]
U937 Cell % inhib @ conc. ([1]; @ 1.0 uM, TNF production, LPS-stimulated U937 cells): 9.0% @

P38 alpha kinase % inhib @ conc. (human p38 kinase alpha; @ 10.0 uM): 51.0% @
Compound: Cc1c(-c2ccncc2)c(-c2ccc(F)cc2)nn1CC(=O)N1CCCN(C)CC1 [Example B-2382]
U937 Cell % inhib @ conc. [1, 6]: 24.0% @

IC50 (human p38 kinase alpha; [4]): 570 nM
IC50 [1, 10]: 370 nM
Compound: O=C(c1cccs1)N1CCC(c2[nH]nc(-c3ccc(F)cc3)c2-c2ccncc2)CC1 [Example B-1384]

IC50 (human p38 kinase alpha; [4]): 1210 nM
Compound: O=S(=O)(c1c(F)cccc1F)N1CCC(c2[nH]nc(-c3ccc(F)cc3)c2-c2ccncc2)CC1 [Example B-1455]
inhibition at 1 µM [1, 5]: 8%

IC50 (human p38 kinase alpha; [2]): 1080 nM
IC50 [1, 10]: > 1000 nM
Compound: O=C(NC(Cc1ccccc1)c1[nH]nc(-c2ccc(F)cc2)c1-c1ccncc1)c1ccccc1 (centres unmarked) [Example B-0819]

inhibition at 1 µM (human p38 kinase alpha): 84%
Compound: O=C(NCc1[nH]nc(-c2ccc(F)cc2)c1-c1ccncc1)c1c(Cl)cc(Cl)cc1Cl [Example B-0019]
inhibition at 10 µM [1, 9]: 100%

P38 alpha kinase IC50, uM or % inhib @ conc. (uM): % inhib (human p38 kinase alpha; @ 10.0 uM): 40.0% @
U937 Cell IC50, uM or % inhib @ conc. (uM): % inhib [1, 11]: 31.0% @
Compound: Cc1c(-c2ccncc2)c(-c2ccc(F)cc2)nn1CC(=O)N(C)CC(=O)N(C)C [Example B-2412]

IC50 (human p38 kinase alpha; [2]): 260 nM
IC50 [1, 12]: 2170 nM
Compound: CC(NC(=O)N1CCCC1)c1[nH]nc(-c2ccc(F)cc2)c1-c1ccncc1 (centres unmarked) [Example B-0581]

P38 alpha kinase % inhib @ conc. (human p38 kinase alpha; @ 10.0 uM): 54.0% @
Compound: CCN(CC)C(=O)Cn1nc(-c2ccc(F)cc2)c(-c2ccncc2)c1C [Example B-2371]
U937 Cell % inhib @ conc. [1, 6]: 36.0% @

IC50 (human p38 kinase alpha; [4]): 20 nM
IC50 [1, 10]: > 1000 nM
Compound: O=C(NCCCc1[nH]nc(-c2ccc(F)cc2)c1-c1ccncc1)NCCCn1ccnc1 [Example B-1297]

IC50 (human p38 kinase alpha; [2]): 10100 nM
Compound: CC(NC(=O)c1cccc(C(F)(F)F)c1F)c1[nH]nc(-c2ccc(F)cc2)c1-c1ccncc1 (centres unmarked) [Example B-0687]
U937 Cell % inhib @ conc. (uM) [1, 3]: 15.0% @

IC50 (human p38 kinase alpha; [2]): 1380 nM
Compound: CNC(=O)CCC(NC(=O)C1CC1)c1[nH]nc(-c2ccc(F)cc2)c1-c1ccncc1 (centres unmarked) [Example B-0866]
inhibition at 1 µM [1, 9]: 28%

IC50 (human p38 kinase alpha; [2]): 440 nM
Compound: CC(C)c1cc(C(C)C)c(C(=O)NC(C)c2[nH]nc(-c3ccc(F)cc3)c2-c2ccncc2)c(C(C)C)c1 (centres unmarked) [Example B-0497]
inhibition at 1 µM [1, 7]: 31%

IC50 (human p38 kinase alpha; [4]): 260 nM
Compound: O=S(=O)(c1ccccc1)N1CCC(c2[nH]nc(-c3ccc(F)cc3)c2-c2ccncc2)CC1 [Example B-1433]
inhibition at 1 µM [1, 5]: 21%

IC50 (human p38 kinase alpha; [4]): 80 nM
IC50 [1, 10]: > 1000 nM
Compound: CN(C)CCCNC(=O)NCCCc1[nH]nc(-c2ccc(F)cc2)c1-c1ccncc1 [Example B-1303]

IC50 (human p38 kinase alpha; [13]): < 100 nM
IC50 [1, 14]: 329 nM
Compound: Cc1[nH]nc(-c2ccc(F)c(F)c2)c1-c1ccncc1 [Example A-46]

IC50 (human p38 kinase alpha; [4]): 490 nM
Compound: COc1ccccc1CCNC(=O)Cn1nc(-c2ccc(F)cc2)c(-c2ccncc2)c1C [Example B-2315]
U937 Cell % inhib @ conc. [1, 6]: 36.0% @

IC50 (human p38 kinase alpha; [2]): 480 nM
Compound: O=S(=O)(NCCc1[nH]nc(-c2ccc(F)cc2)c1-c1ccncc1)c1ccc2ccccc2c1 [Example B-1068]
inhibition at 1 µM [1, 9]: 24%

IC50 (human p38 kinase alpha; [4]): 1230 nM
Compound: O=S(=O)(c1ccc(C(F)(F)F)cc1)N1CCC(c2[nH]nc(-c3ccc(F)cc3)c2-c2ccncc2)CC1 [Example B-1474]
inhibition at 1 µM [1, 5]: 31%

IC50 (human p38 kinase alpha; [2]): 620 nM
Compound: CC(NC(=O)c1cccc(F)c1)c1[nH]nc(-c2ccc(F)cc2)c1-c1ccncc1 (centres unmarked) [Example B-0694]
U937 Cell % inhib @ conc. (uM) [1, 3]: 21.0% @
